Test results as given in patent US7691854B2, “Dihydropyridine derivatives for use as human neutrophil elastase inhibitors” (Bayer Schering Pharma Aktiengesellschaft, priority 2002, dated 2010).

What follows are molecules tested against T1, human neutrophil elastase (HNE) (Homo sapiens, UniProt P08246) (assay: In vitro inhibition of HNE using a fluorogenic peptide substrate (MeOSuc-Ala-Ala-Pro-Val-AMC)). Settings: 384 MTP format.
T1 construct: purchased SERVA Electrophoresis GmbH, Heidelberg, Germany #20927.01
T1 sequence (P08246 30-267): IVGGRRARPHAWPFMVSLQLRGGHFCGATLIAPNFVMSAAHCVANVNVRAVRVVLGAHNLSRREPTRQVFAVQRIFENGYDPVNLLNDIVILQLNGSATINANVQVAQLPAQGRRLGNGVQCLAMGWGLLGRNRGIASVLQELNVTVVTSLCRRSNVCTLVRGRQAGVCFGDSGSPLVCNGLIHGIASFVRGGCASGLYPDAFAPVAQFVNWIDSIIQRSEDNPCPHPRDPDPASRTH
Format: biochemical
Description: I. In Vitro Enzyme Assays of Human Neutrophil Elastase (HNE)
• assay buffer: 0.1 M HEPES-NaOH buffer pH 7.4, 0.5 M NaCl, 0.1% (w/v) bovine serum albumin; • suitable concentration (see below) of HNE (18 U/mg lyophil., #20927.01, SERVA Electrophoresis GmbH, Heidelberg, Germany) in assay buffer; • suitable concentration (see below) of substrate in assay buffer; • suitable concentration of test compounds diluted with assay buffer from a 10 mM stock solution in DMSO.
In Vitro Inhibition of HNE Using a Fluorogenic Peptide Substrate (Continuous Read-Out Signal, 384 MTP Assay Format):
In this protocol, the elastase substrate MeOSuc-Ala-Ala-Pro-Val-AMC (#324740, Calbiochem-Novabiochem Corporation, Merck KGaA, Darmstadt, Germany) is used. The test solution is prepared by mixing 10 μl of test compound dilution, 20 μl of HNE enzyme dilution (final concentration 8-0.4 μU/ml, routinely 2.1 μU/ml) and 20 μl of substrate dilution (final concentration 1 mM-1 μM, routinely 20 μM), respectively. The solution is incubated for 0-2 hrs at 37° C. (routinely one hour). The fluorescence of the liberated AMC due to the enzymatic reaction is measured at 37° C. (TECAN spectra fluor plus plate reader). The rate of increase of the fluorescence (ex. 395 nm, em. 460 nm) is proportional to elastase activity. IC50 values are determined by RFU-versus-[I] plots. Km and Km(app.) values are determined by Lineweaver-Burk plots and converted to Ki values by Dixon plots.

Row | Molecule | IC50
1 | CCOC(=O)C1=C(C)N(c2cccc(C(F)(F)F)c2)C(N)=C(C(=O)OCC)C1c1ccc(C#N)cc1 (stereo not shown) [Example 2, Diethyl 2-amino-4-(4-cyanophenyl)-6-methyl-1-[3-(trifluoromethyl)phenyl]-1,4-dihydro-3,5-pyridine-dicarboxylate] | 30 nM
2 | CC1=C(C#N)C(c2ccc(C#N)cc2)C(C(N)=O)=C(N)N1c1cccc(C(F)(F)F)c1 (stereo not shown) [Example 4, 2-Amino-5-cyano-4-(4-cyanophenyl)-6-methyl-1-[3-(trifluoromethyl)phenyl]-1,4-dihydro-3-pyridinecarboxamide] | 27 nM
3 | CC(=O)C1=C(N)N(c2cccc(C(F)(F)F)c2)C(C)=C(C#N)C1c1ccc(C#N)cc1 (stereo not shown) [Example 12, 5-Acetyl-6-amino-4-(4-cyanophenyl)-2-methyl-1-[3-(trifluoromethyl)phenyl]-1,4-dihydro-3-pyridinecarbonitrile] | 90 nM
4 | CCOC(=O)C1=C(N)N(c2cccc(C(F)(F)F)c2)C(COC)=C(C(=O)OC)C1c1ccc(C#N)cc1 (stereo not shown) [Example 25] | 40 nM
5 | CCOC(=O)C1=C(C)N(c2cccc(C(F)(F)F)c2)C(N)=C(C(=O)OCC)C1c1ccc(Br)nc1 (stereo not shown) [Example 43] | 800 nM
6 | CCNC(=O)NC1=C(C(=O)OCC)C(c2ccc(C#N)cc2)C(C(=O)OCC)=C(C)N1c1cccc(C(F)(F)F)c1 (stereo not shown) [Example 44, Diethyl 4-(4-cyanophenyl)-2-{[(ethylamino)carbonyl]amino}-6-methyl-1-[3-(trifluoromethyl)phenyl]-1,4-dihydro-3,5-pyridinedicarboxylate] | 130 nM
7 | CCOC(=O)C1=C(C)N(c2cccc(C(F)(F)F)c2)C(N(C)C)=C(C(=O)OCC)C1c1ccc(C#N)cc1 (stereo not shown) [Example 47, Diethyl 4-(4-cyanophenyl)-2-(dimethylamino)-6-methyl-1-[3-(trifluoromethyl)-phenyl]-1,4-dihydro-3,5-pyridinedicarboxylate] | 500 nM
8 | CCOC(=O)C1=C(C)N(c2cccc(C(F)(F)F)c2)C(N)=C(C2=NC(C)(C)CO2)C1c1ccc(C#N)cc1 (stereo not shown) [Example 50, Ethyl 6-amino-4-(4-cyanophenyl)-5-(4,4-dimethyl-4,5-dihydro-1,3-oxazol-2-yl)-2-methyl-1-[3-(trifluoromethyl)phenyl]-1,4-dihydro-3-pyridinecarboxylate] | 10 nM

What follows are molecules tested on human polymorphonuclear cells (PMNs) (assay: In vitro PMN elastolysis assay (tritiated elastin)). Settings: at 1.2 μM; n=3 different donors at 3.6×10^5 cells per well.
Format: cell-based
Description: In Vitro PMN Elastolysis Assay:
This assay is used to determine the elastolytic potential of human polymorphonuclear cells (PMNs) and assess the proportion of degradation due to, neutrophil elastase [cf. Z. W. She et al., Am. J. Respir. Cell. Mol. Biol. 9, 386-392 (1993)].
Tritiated elastin, in suspension, is coated on to a 96 well plate at 10 μg per well. Test and reference [ZD-0892 (J. Med. Chem. 40, 1876-1885, 3173-3181 (1997), WO 95/21855) and α1 protease inhibitor (α1PI)] compounds are added to the wells at the appropriate concentrations. Human PMNs are separated from peripheral venous blood of healthy donors and resuspended in culture media. The neutrophils are added to the coated wells at concentrations ranging between 1×10^6 to 1×10^5 cells per well. Porcine pancreatic elastase (1.3 μM) is used as a positive control for the assay, and α1PI (1.2 μM) is used as the positive inhibitor of neutrophil elastase. The cellular control is PMNs without compound at each appropriate cell density. The cells plus compounds are incubated in a humidified incubator at 37° C. for 4 hours. The plates are centrifuged to allow the harvest of cell supernatant only. The supernatant is transferred in 75 μl volumes to corresponding wells of a 96 well Lumaplate™ (solid scintillant containing plates). The plates are dried until no liquid is visible in the wells and read in a beta counter for 3 minutes per well. […]

Row | Molecule | inhibition of elastolysis of 3H-elastin (mean±s.e.m.)
9 | α1PI: α1 protease inhibitor, reference and positive inhibitor of neutrophil elastase | 83.46±3.97%

Same assay, conditions: n=2 different donors at 3.6×10^5 cells per well; read-out: IC50 (mean±s.e.m.)

Row | Molecule | IC50
10 | COc1ccc(C(=O)N[C@H](C(=O)N2CCC[C@H]2C(=O)N[C@H](C(=O)C(F)(F)F)C(C)C)C(C)C)cc1 [ZD-0892] | 45.5 ± 7.75 nM
